Reference: paper PMC5131364, “Pharmacologic modulation of RORγt translates to efficacy in preclinical and translational models of psoriasis and inflammatory arthritis” (Scientific Reports, 2016)
Like-named read-outs stand apart in the source and are kept apart here.

How the values were obtained:
Type in all cases: cell-based
PBMC from healthy donors = assay: IL-17A production from PBMC of healthy donors; details: Homo sapiens, typically observed
Text: Frozen PBMCs of healthy and rheumatoid arthritis patients were obtained from SeraCare Life Sciences (Gaithersburg, MD). […] 3 days later, supernatants were collected and analyzed by MSD multi-spot assay or ELISA for IL-17A, IL-22 and IL-13 production.

mouse splenic γδ T cells = assay: Mouse γδ+ T cell in vitro activation; details: for IC50: Mus musculus, T-cell, IL-1β/IL-23 plus anti-IFNγ, 65 hours, ELISA
Text: The following antibodies (anti-mouse or anti-human) were purchased from BD Biosciences (San Diego, CA) or eBioscience (San Diego, CA): anti-CD3-FITC (mouse 17A2 and human SK7), anti-CD4-allophycocyanin (APC), anti-CD4-PerCp, anti-CD4-FITC, anti-CD4-PE (mouse GK1.5 and human SK3), anti-CD44-PerCp (mouse IM7), anti-γδ TCR-FITC, anti-γδ TCR-PE (mouse GL3 and human B1), anti-CD62L-FITC (mouse MEL-14 and human SK11), anti-CD45RO-APC (human UCHL1), anti-CCR6-PE (human 11A9), anti-CD45-PerCp (mouse 30-F11). Human or mouse anti-IFNγ (mouse XMG1.2 and human 4S.B3), anti-TNFα (mouse MP6-XT22 and human MAB11), anti-IL-17A (mouse eBio17B7 and human eBio64DEC17), anti-IL-22 (mouse 1H8PWSR and human 22URTI), and anti-Foxp3 (mouse FJK-16s and human 36A/E7), all PE or APC conjugated, were purchased from eBioscience (San Diego, CA). Human and mouse APC conjugated CD1d tetramers pre-loaded with alpha-GalCer and negative controls were obtained from ProImmune. For intracellular staining cells were stimulated for 4 hours at 37 °C with PMA and ionomycin (0.5 μg/ml each) in the presence of brefeldin A and monensin or with leukocyte activation cocktail (BD Bioscience, San Diego, CA). Cells were stained with fluorescence-labeled antibodies for surface marker, then fixed/permeabilized (eBioscience) and stained with antibodies for intracellular cytokines. For Foxp3 staining cells were fixed/permeabilized using transcription factor buffer set (eBioscience). The data were acquired on a FACS Calibur (BD Bioscience) and analyzed using FlowJo software (Tree Star, San Carlos, CA).
Mouse γδ^+ T cells were isolated from splenocytes of C57BL/6N mice using TCR γδ^+ T Cell Isolation Kit (Miltenyl Biotec, Auburn, CA), following the manufacturer’s instructions. Cells were resuspended in culture medium and seeded in 96-well plates at 5 × 10^4 per well. […] Cells were incubated at 37 °C and 5% CO2 for 65 hours before sample collection. Supernatant samples were collected for measurement of IL-17A, IL-17F and IL-22 using R&D ELISA kits, according to manufacturer’s instructions. Cytokine-producing cells were analyzed through intracellular staining and flow cytometry analysis.

mouse splenocytes = assay: IL-23 induced IL-17A and IL-22 production in mouse splenocytes; details: Splenocyte, 96 h, IL-23 and IL-2, 4 days
Description: Mouse CD4+ T cell in vitro Th1 differentiation
Total CD4+ T cells were isolated from splenocytes of C57/BL6 mice (Chareles River Labrotory) using a CD4+ T cell isolation kit (Miltenyl Biotec, Auburn, CA), following the manufacturer’s instructions. Cells were resuspended in culture medium (described in Method section of Th17 differentiation) and were added to 96‐well plates at 2x10^5 per well. Titrated JNJ‐54271074 was added to each well at final DMSO concentration of 0.2%. Cells were incubated for 1 hour, after which Th1 cell differentiation medium was added with final concentrations of 1 µg/ml anti‐CD3, 5 µg/mL anti‐CD28 (BD Pharmingen, San Diego, CA), 10 µg/ml anti‐IL4, 10 ng/mL IL‐12, (R&D Systems, Minneapolis, MN). Cells were cultured at 37 °C and 5% CO2 for 3 days. Supernatants were collected and the accumulated cytokines in culture were measured by ELISA kits (R&D Systems, Minneapolis, MN) following manufacturers' instructions.
IL‐23 induced IL‐17A and IL‐22 production in mouse splenocytes splenocytes were isolated from C57/BL6 mice and resuspended in medium and cultured in 96‐well plates at […] per 100 µL per well. […] Supernatants were collected and the accumulated cytokines in culture were measured by ELISA according to the manufacturer’s instructions (IL‐17A kit from R&D systems, and IL‐22 from Biolegend San Diego). […]

- IC50 (mouse splenic γδ T cells; read-out: IC50, IL-17A production): 77 nM
- IC50 (mouse splenic γδ T cells; read-out: IC50, IL-17F production): 54 nM
- IC50 (mouse splenic γδ T cells; read-out: IC50, IL-22 production): 83 nM
- IC50 (mouse splenocytes; no anti-CD3/anti-CD28, read-out: IC50, IL-23-stimulated IL-17A production): 19 nM
- IC50 (mouse splenocytes; no anti-CD3/anti-CD28, read-out: IC50, IL-23-stimulated IL-22 production): 37 nM
SMILES: COc1nc2ccc([C@@](O)(c3ccc(C)nc3C)c3cnnn3C)cc2c(Cl)c1Cc1ccc(C(F)(F)F)cc1 [JNJ-54271074]
- IC50 (PBMC from healthy donors): 3 ± 0.9 nM
- decrease of the percentage of IL-17A- and IL-17A/IL-22-producing cells (mouse splenic γδ T cells; 0.1 μM): about 50%
